Assay results published in US9161990B2, “Hydrochloride salts of a glycopeptide-cephalosporin antbiotic compond” (THERAVANCE BIOPHARMA ANTIBIOTICS IP, LLC, priority 2013, dated 2015).
Structures can show the parent of a compound that is named as a salt.

Legend:
[1] = Storage stability of lyophilized hydrochloride salts (purity by HPLC); type: physicochemical; conditions: for Purity (HPLC area percent) / Δ (change in percent purity from time = 0) / decrease in purity: dihydrochloride; for decrease in purity: listed as dihydrochloride salt
Procedure: (§1) All solvents were HPLC grade and were purchased from Honeywell Burdick & Jackson (Muskegon, Mich. 49442). Phosphoric acid (85% w/w) and sodium dihydrogen phosphate were HPLC grade and were purchased from Fluka (Sigma-Aldrich, St. Louis, Mo. 63103). All reagents were used without further purification.
(§2) Test samples were filtered through a 0.2 μm polyvinylidene fluoride (PVDF) filter before analysis and the first 1 mL was discarded.
(§3) Test sample purity was determined based on the integrated peak area (area-under-the-curve or AUC) for the compound as a percentage of all integrated peaks. The concentration (assay value) of the compound in a test sample was determined by comparison with a reference standard.
(§4) One rack was stored protected from light in a drawer at room temperature and the other rack was stored in a refrigerator at 2 to 8° C. A representative vial of each type of stability sample was analyzed by HPLC after storage for 1, 3, 6 and 12 months to determine purity.

[2] = Storage stability of hydrochloride salts in a lyophilized composition containing sucrose and glycine (purity by HPLC); type: physicochemical; conditions: for Δ (change in percent purity from time = 0) / Purity (HPLC area percent): composition containing sucrose and glycine; for Δ (change in percent purity from time = 0) / Purity (HPLC area percent) / decrease in purity: dihydrochloride; for decrease in purity: formulated with sucrose and glycine, listed as dihydrochloride salt
Procedure: as §1, §2, §3, §4

[3] = refrigerated temperature (2 to 8° C.), 1 month
[4] = refrigerated temperature (2 to 8° C.), 3 months
[5] = refrigerated temperature (2 to 8° C.), 6 months
[6] = refrigerated temperature (2 to 8° C.), 12 months
[7] = room temperature, 1 month, listed as Di HCl
[8] = room temperature, 3 months, listed as Di HCl
[9] = room temperature, 6 months, listed as Di HCl
[10] = room temperature, 12 months, listed as Di HCl
[11] = stored at 2 to 8° C. for 12 months
[12] = stored at room temperature for 12 months

SMILES: CN[C@H](CC(C)C)C(=O)NC1C(=O)N[C@@H](CC(N)=O)C(=O)N[C@H]2C(=O)N[C@H]3C(=O)N[C@H](C(=O)N[C@H](C(=O)NCCCO/N=C(\C(=O)N[C@@H]4C(=O)N5C(C(=O)[O-])=C(C[n+]6ccccc6)CS[C@H]45)c4nc(N)sc4Cl)c4cc(O)cc(O)c4-c4cc3ccc4O)[C@H](O)c3ccc(c(Cl)c3)Oc3cc2cc(c3O[C@@H]2O[C@H](CO)[C@@H](O)[C@H](O)[C@H]2O[C@H]2C[C@](C)(N)[C@H](O)[C@H](C)O2)Oc2ccc(cc2Cl)[C@H]1O (stereo partly drawn) [Dihydrochloride, 26-[[[3-[[(Z)-[1-(2-amino-5-chloro-4-thiazolyl)-2-[[(6R,7R)-2-carboxy-8-oxo-3-(pyridiniomethyl)-5-thia-1-azabicyclo[4.2.0]oct-2-en-7-yl]amino]-2-oxoethylidene]amino]oxy]propyl]amino]carbonyl]-26-decarboxyvancomycin dihydrochloride]
- Purity (HPLC area percent) [1, 3]: 89.9%
- Δ (change in percent purity from time = 0) [1, 3]: −0.2%
- Purity (HPLC area percent) [1, 4]: 89.4%
- Δ (change in percent purity from time = 0) [1, 4]: −0.7%
- Δ (change in percent purity from time = 0) [1, 5]: 0.7%
- Purity (HPLC area percent) [1, 6]: 87.2%
- Δ (change in percent purity from time = 0) [1, 6]: −2.9%
- Purity (HPLC area percent) ([1]; refrigerated temperature (2 to 8° C.), time 0 months): 90.1%
- Purity (HPLC area percent) ([1]; room temperature, 1 month): 85.3%
- Δ (change in percent purity from time = 0) ([1]; room temperature, 1 month): −4.8%
- Purity (HPLC area percent) [1, 7]: 85.3%
- Δ (change in percent purity from time = 0) [1, 7]: −4.8%
- Purity (HPLC area percent) ([1]; room temperature, 3 months): 82.5%
- Δ (change in percent purity from time = 0) ([1]; room temperature, 3 months): −7.6%
- Purity (HPLC area percent) [1, 8]: 82.5%
- Δ (change in percent purity from time = 0) [1, 8]: −7.6%
- Purity (HPLC area percent) ([1]; room temperature, 6 months): 81.4%
- Δ (change in percent purity from time = 0) ([1]; room temperature, 6 months): −8.7%
- Purity (HPLC area percent) [1, 9]: 81.4%
- Δ (change in percent purity from time = 0) [1, 9]: −8.7%
- Purity (HPLC area percent) ([1]; room temperature, 12 months): 69.6%
- Δ (change in percent purity from time = 0) ([1]; room temperature, 12 months): −20.5%
- Purity (HPLC area percent) [1, 10]: 69.6%
- Δ (change in percent purity from time = 0) [1, 10]: −20.5%
- Purity (HPLC area percent) ([1]; room temperature, time 0 months): 90.1%
- Purity (HPLC area percent) ([1]; room temperature, time 0 months, listed as Di HCl): 90.1%
- decrease in purity [1, 11]: 2.9%
- decrease in purity [1, 12]: 20.5%
- storage stability compared to the trihydrochloride salt ([1]; stored for 12 months at either room temperature or 2 to 8° C.): significantly more stable than the trihydrochloride salt
- Δ (change in percent purity from time = 0) [2, 3]: −0.3%
- Purity (HPLC area percent) [2, 4]: 89.4%
- Δ (change in percent purity from time = 0) [2, 4]: −0.7%
- Δ (change in percent purity from time = 0) [2, 5]: 0.7%
- Purity (HPLC area percent) [2, 6]: 87.2%
- Δ (change in percent purity from time = 0) [2, 6]: −2.9%
- Δ (change in percent purity from time = 0) ([2]; room temperature, 1 month): −0.8%
- Δ (change in percent purity from time = 0) ([2]; room temperature, 3 months): −2.9%
- Δ (change in percent purity from time = 0) ([2]; room temperature, 6 months): 0.2%
- Δ (change in percent purity from time = 0) ([2]; room temperature, 12 months): −6.8%
- decrease in purity [2, 11]: 2.9%
- decrease in purity [2, 12]: 6.8%
- storage stability when formulated with sucrose and glycine ([2]; stored at room temperature for 12 months, compared to the salt alone): more stable
